The record followed here is ChEMBL document CHEMBL1143899, “Aryl-indolyl maleimides as inhibitors of CaMKIIdelta. Part 3: Importance of the indole orientation” (Bioorg Med Chem Lett, 2008).

Each structure is given as a SMILES string.

The target of the first experiment is T1, Calcium/calmodulin-dependent protein kinase type II subunit delta (Homo sapiens, UniProt Q13557). Kind of experiment: Inhibition of CaMK2delta using freshly stock solution of compound.
T1 sequence (Q13557 whole entry): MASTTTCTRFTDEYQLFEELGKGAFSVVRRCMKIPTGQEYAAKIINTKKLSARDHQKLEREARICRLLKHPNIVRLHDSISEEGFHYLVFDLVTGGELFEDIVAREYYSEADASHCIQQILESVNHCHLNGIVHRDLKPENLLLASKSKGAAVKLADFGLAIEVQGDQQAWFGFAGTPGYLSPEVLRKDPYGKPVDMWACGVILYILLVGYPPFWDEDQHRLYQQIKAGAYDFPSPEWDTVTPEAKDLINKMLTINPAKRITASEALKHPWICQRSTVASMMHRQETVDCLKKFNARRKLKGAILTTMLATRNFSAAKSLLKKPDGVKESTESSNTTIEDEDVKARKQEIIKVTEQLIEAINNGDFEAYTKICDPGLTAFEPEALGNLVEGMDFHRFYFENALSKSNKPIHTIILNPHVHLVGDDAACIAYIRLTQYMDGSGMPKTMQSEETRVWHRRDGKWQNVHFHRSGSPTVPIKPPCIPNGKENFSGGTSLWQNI
For the compound `NCCCn1cc(C2=C(c3ccccc3)C(=O)NC2=O)c2ccccc21`, the IC50 (in general, the concentration needed to halve the response being measured) worked out at 350 nM.

On to `NCCCn1cc(C2=C(c3csc4ccccc34)C(=O)NC2=O)c2ccccc21`, for which the IC50 came out at 360 nM.

The target of another experiment is T1, Calcium/calmodulin-dependent protein kinase type II subunit delta. Kind of experiment: Inhibition of CaMK2delta using 3 weeks old stock solution of compound.
As for `NCCCn1cc(C2=C(c3ccccc3)C(=O)NC2=O)c2ccccc21`, the IC50 worked out at 230 nM.

With `NCCCn1cc(C2=C(c3csc4ccccc34)C(=O)NC2=O)c2ccccc21`, the IC50 is < 39 nM.

The next experiment shares this target. Kind of experiment: Inhibition of CaMK2delta.
As to `CNCCc1cn(C2=C(c3c[nH]c4ccc(C(=O)N(C)C)cc34)C(=O)NC2=O)c2ccccc12`, the IC50 is 11800 nM.

With `NCCc1cn(C2=C(c3c[nH]c4ccc(Cl)cc34)C(=O)NC2=O)c2ccccc12`, the IC50 is 10 nM.

`Cc1[nH]c2ccccc2c1C1=C(c2cn(CCCN)c3ccccc23)C(=O)NC1=O`: the IC50 is 750 nM.

For the compound `CNCCc1cn(C2=C(c3c[nH]c4ccc(C(=O)NC)cc34)C(=O)NC2=O)c2ccccc12`, the IC50 turned out to be 280 nM.

As for `CN(C)CCc1cn(C2=C(c3c[nH]c4ccccc34)C(=O)NC2=O)c2ccccc12`, the IC50 turned out to be 560 nM.

With `N#Cc1ccc2[nH]cc(C3=C(n4cc(CCN)c5ccccc54)C(=O)NC3=O)c2c1`, the half-inhibitory concentration (IC50) was 46 nM.

`CN(C)Cc1cn(C2=C(c3c[nH]c4ccccc34)C(=O)NC2=O)c2ccccc12`: the IC50 amounted to 2410 nM.

Regarding `NCCCn1cc(C2=C(c3c[nH]c4ccccc34)C(=O)NC2=O)c2ccccc21`, the IC50 was found to be 380 nM.

Regarding `CNCCc1cn(C2=C(c3c[nH]c4ccc(C(N)=O)cc34)C(=O)NC2=O)c2ccccc12`, the IC50 worked out at 190 nM.

Consider `CNCCc1cn(C2=C(c3c[nH]c4ccc(C(=O)O)cc34)C(=O)NC2=O)c2ccccc12`, for which the IC50 turned out to be 380 nM.

Turning to `COc1ccc2[nH]cc(C3=C(n4cc(CCN)c5ccccc54)C(=O)NC3=O)c2c1`, the IC50 was 170 nM.

In the case of `CNCCc1cn(C2=C(c3c[nH]c4ccc(C(=O)OC)cc34)C(=O)NC2=O)c2ccccc12`, the IC50 was found to be 21 nM.

Take `CNCCc1cn(C2=C(c3c[nH]c4ccccc34)C(=O)NC2=O)c2ccccc12`: the IC50 stood at 150 nM.

As to `CNCCc1cn(C2=C(c3c[nH]c4ccc(Cl)cc34)C(=O)NC2=O)c2ccccc12`, the IC50 came to 13 nM.

`NCCc1cn(C2=C(c3c[nH]c4ccc(C(F)(F)F)cc34)C(=O)NC2=O)c2ccccc12`: the IC50 was found to be 32 nM.

With `NCCc1cn(C2=C(c3c[nH]c4ccc(F)cc34)C(=O)NC2=O)c2ccccc12`, the IC50 is 38 nM.

`CCc1ccc2[nH]cc(C3=C(n4cc(CCNC)c5ccccc54)C(=O)NC3=O)c2c1`: the half-maximal inhibitory concentration (IC50) was 110 nM.

As for `NCCc1cn(C2=C(c3c[nH]c4ccccc34)C(=O)NC2=O)c2ccccc12`, the IC50 worked out at 110 nM.

Take `NCCCn1cc(C2=C(n3ccc4ccccc43)C(=O)NC2=O)c2ccccc21`: the IC50 is 4560 nM.
